“And” between values parts separate entries of the source, which are not always exact repeats. Equal values may be shown once.
Legend:
[1] = Residual unreacted amustaline by LCMS, Example 3 (1-container vs 3-container kits, PVC1/PVC2/EVA bags); assay type: physicochemical
Procedure: In another study, pathogen-inactivated whole blood was prepared using amustaline and GSH, in 1-container or 3-container kits of the present disclosure, with the 3-container kits comprising second and third bags (e.g., transfer/storage containers) from three different sources (e.g., different plastics materials). The three different transfer/storage containers included a 600 mL container, comprising Transfufol 3226 PVC film (“PVC1”), a second 600 mL container from a different manufacturer comprising Transfufol 3226 PVC film (“PVC2”), and a 750 mL container from Cerus, comprising EVA (ethylene-vinyl acetate) 1800 film (“EVA”). Six ABO-matched whole blood units in anticoagulant were pooled and split into seven units of ~450 mL each. The seven whole blood units were subjected to pathogen inactivation under conditions of no transfer step between containers (e.g., processing performed in the 1-container kit), or two transfer steps between containers (e.g., processing performed in the 3-container kits) of the indicated storage/transfer bag source (Table 4). Amustaline and GSH were added to the whole blood units as described previously by sterile docking of a filter set to the tubing of an input port of the first containers, which contained the whole blood. Unit 1 was treated with amustaline and GSH at 0.2 mM and 2.0 mM final concentrations, respectively, in the first container and incubated at 22° C., with samples taken at 18, 20, 22 and 24 hours, with no container transfers. For units 2-7, amustaline and GSH were added to the whole blood (0.2 mM and 2.0 mM final concentrations, respectively) in the first container, followed by transfer to the second container and incubation at 22° C. for 18 hours. At 18 hours, samples were taken along with transfer of the mixture to the third container and further incubation at 22° C., with additional sampling at 2 hour intervals (20, 22 and 24 hr).
All samples were analyzed by LCMS to determine the level of residual, unreacted amustaline as previously described. […] Following a second transfer (i.e., to third container) at 18 hr and further incubation at 22° C., residual amustaline was less than 1 nM at the 20 hr time point (i.e., 2 hours after bag transfer) for kits with two different container types and approaching 1 nM for kits with the third container type.

[2] = Residual unreacted amustaline by LCMS, Example 4 (1-, 2- or 3-container kits); assay type: physicochemical; details: for Residual amustaline levels in pathogen-inactivated whole blood, 20 hr / Residual amustaline levels in pathogen-inactivated whole blood, 22 hr / Residual amustaline levels in pathogen-inactivated whole blood, 24 hr / Residual amustaline levels in pathogen-inactivated whole blood, 26 hr: 22° C.
Procedure: Another study was performed to evaluate the preparation of pathogen-inactivated whole blood using amustaline and GSH, in 1-container, 2-container or 3-container kits of the present disclosure. Six ABO-matched whole blood units in anticoagulant were pooled and split into seven units of ~450 mL. The seven whole blood units were subjected to pathogen inactivation under one of three conditions—with no transfer step between containers, one transfer step between two containers, or two transfer steps between three containers (Table 5). Amustaline and GSH were added to the whole blood units by sterile docking of a filter set as previously described to the tubing of an input port of the first container that contained the whole blood. Unit 1 was treated with amustaline and GSH at 0.2 mM and 2.0 mM final concentrations, respectively, in the first container and incubated at 22° C., with samples taken at 20, 22, 24 and 26 hours, with no further container transfers. For units 2-4, amustaline and GSH were added to the whole blood (0.2 mM and 2.0 mM final concentrations, respectively) in the first container and incubated at 22° C. for 20 hours. A sample was taken at 20 hours, along with transfer to a second bag and further incubation at 22° C., with additional sampling at 2 hour intervals (22, 24 and 26 hr). For units 5-7, amustaline and GSH were added to the whole blood (0.2 mM and 2.0 mM final concentrations, respectively) in the first container and the mixture transferred to a second container, followed by incubation at 22° C. for 20 hours. A sample was taken at 20 hours, along with transfer to a third bag and further incubation at 22° C., with additional sampling at 2 hour intervals (22, 24 and 26 hr).
Samples were analyzed by LCMS to determine the level of residual, unreacted amustaline as previously described.

[3] = Unit 1, no transfer (1 bag kit)
[4] = Units 2-4, 1x transfer (2 bag kit), to second bag at 20 hr
[5] = Units 5-7, 2x transfer (3 bag kit), second container after addition, third bag at 20 hr

## O=C(CCNc1c2ccccc2nc2ccccc12)OCCN(CCCl)CCCl [amustaline]
[1]; 18 hr (at transfer to third container), Units 2-3, 3 bag kit, 2x transfer, PVC1 transfer bags, 22° C.
  Residual amustaline levels in pathogen-inactivated whole blood, 18 hr: 1.75 nM and 1.52 nM
[1]; 18 hr (at transfer to third container), Units 4-5, 3 bag kit, 2x transfer, PVC2 transfer bags, 22° C.
  Residual amustaline levels in pathogen-inactivated whole blood, 18 hr: 1.45 nM and 1.48 nM
[1]; 18 hr (at transfer to third container), Units 6-7, 3 bag kit, 2x transfer, EVA transfer bags, 22° C.
  Residual amustaline levels in pathogen-inactivated whole blood, 18 hr: 3.11 nM and 3.51 nM
[1]; 18 hr, Unit 1, 1 bag kit, no transfer, 22° C.
  Residual amustaline levels in pathogen-inactivated whole blood, 18 hr: 2.16 nM
[1]; 20 hr (2 hours after bag transfer at 18 hr), 3-container kits, third container type, 22° C.
  residual amustaline at the 20 hr time point, kits with the third container type: ~1 nM
[1]; 20 hr (2 hours after bag transfer at 18 hr), 3-container kits, two different container types, 22° C.
  residual amustaline at the 20 hr time point, kits with two container types: less than 1 nM
[1]; 20 hr (third container from 18 hr), Units 2-3, 3 bag kit, 2x transfer, PVC1 transfer bags, 22° C.
  Residual amustaline levels in pathogen-inactivated whole blood, 20 hr: 0.88 nM and 0.78 nM
[1]; 20 hr (third container from 18 hr), Units 4-5, 3 bag kit, 2x transfer, PVC2 transfer bags, 22° C.
  Residual amustaline levels in pathogen-inactivated whole blood, 20 hr: 0.85 nM and 0.87 nM
[1]; 20 hr (third container from 18 hr), Units 6-7, 3 bag kit, 2x transfer, EVA transfer bags, 22° C.
  Residual amustaline levels in pathogen-inactivated whole blood, 20 hr: 1.14 nM and 1.22 nM
[1]; 20 hr, Unit 1, 1 bag kit, no transfer, 22° C.
  Residual amustaline levels in pathogen-inactivated whole blood, 20 hr: 1.99 nM
[1]; 22 hr (third container from 18 hr), Units 2-3, 3 bag kit, 2x transfer, PVC1 transfer bags, 22° C.
  Residual amustaline levels in pathogen-inactivated whole blood, 22 hr: BLOQ (BLOQ = Below Limit of Quantitation (e.g., <0.75 nM))
[1]; 22 hr (third container from 18 hr), Units 4-5, 3 bag kit, 2x transfer, PVC2 transfer bags, 22° C.
  Residual amustaline levels in pathogen-inactivated whole blood, 22 hr: BLOQ (BLOQ = Below Limit of Quantitation (e.g., <0.75 nM))
[1]; 22 hr (third container from 18 hr), Units 6-7, 3 bag kit, 2x transfer, EVA transfer bags, 22° C.
  Residual amustaline levels in pathogen-inactivated whole blood, 22 hr: BLOQ (BLOQ = Below Limit of Quantitation (e.g., <0.75 nM))
[1]; 22 hr and 24 hr (4 or 6 hours after bag transfer), all samples in 3-container kits, three container types
  level of residual amustaline at 22 hr and 24 hr, 3-container kits: below the limit of quantitation
[1]; 22 hr, Unit 1, 1 bag kit, no transfer, 22° C.
  Residual amustaline levels in pathogen-inactivated whole blood, 22 hr: 1.46 nM
[1]; 24 hr (third container from 18 hr), Units 2-3, 3 bag kit, 2x transfer, PVC1 transfer bags, 22° C.
  Residual amustaline levels in pathogen-inactivated whole blood, 24 hr: BLOQ (BLOQ = Below Limit of Quantitation (e.g., <0.75 nM))
[1]; 24 hr (third container from 18 hr), Units 4-5, 3 bag kit, 2x transfer, PVC2 transfer bags, 22° C.
  Residual amustaline levels in pathogen-inactivated whole blood, 24 hr: BLOQ (BLOQ = Below Limit of Quantitation (e.g., <0.75 nM))
[1]; 24 hr (third container from 18 hr), Units 6-7, 3 bag kit, 2x transfer, EVA transfer bags, 22° C.
  Residual amustaline levels in pathogen-inactivated whole blood, 24 hr: BLOQ (BLOQ = Below Limit of Quantitation (e.g., <0.75 nM))
[1]; 24 hr, Unit 1, 1 bag kit, no transfer, 22° C.
  Residual amustaline levels in pathogen-inactivated whole blood, 24 hr: 1.54 nM
[2]; 2-container and 3-container kits, after transfer at 20 hr
  level of amustaline after PI processing, 2-container and 3-container kits: below the limit of quantitation
[2]; 20 hr (at transfer to third bag), Units 5-7, 2x transfer (3 bag kit), second container after addition, third bag at 20 hr
  Residual amustaline levels in pathogen-inactivated whole blood, 20 hr: 1.47 nM and 1.46 nM and 1.53 nM
[2]; 20 hr (at transfer), Units 2-4, 1x transfer (2 bag kit), to second bag at 20 hr
  Residual amustaline levels in pathogen-inactivated whole blood, 20 hr: 1.53 nM and 1.65 nM and 1.66 nM
[2]; 20 hr, Unit 1, no transfer (1 bag kit)
  Residual amustaline levels in pathogen-inactivated whole blood, 20 hr: 1.47 nM
[2]; [3]
  Residual amustaline levels in pathogen-inactivated whole blood, 22 hr: 1.54 nM
  Residual amustaline levels in pathogen-inactivated whole blood, 24 hr: 1.39 nM
  Residual amustaline levels in pathogen-inactivated whole blood, 26 hr: 1.32 nM
[2]; [4]
  Residual amustaline levels in pathogen-inactivated whole blood, 22 hr: BLOQ (BLOQ = Below Limit of Quantitation (e.g., < 0.75 nM))
  Residual amustaline levels in pathogen-inactivated whole blood, 24 hr: BLOQ (BLOQ = Below Limit of Quantitation (e.g., < 0.75 nM))
  Residual amustaline levels in pathogen-inactivated whole blood, 26 hr: BLOQ (BLOQ = Below Limit of Quantitation (e.g., < 0.75 nM))
[2]; [5]
  Residual amustaline levels in pathogen-inactivated whole blood, 22 hr: BLOQ (BLOQ = Below Limit of Quantitation (e.g., < 0.75 nM))
  Residual amustaline levels in pathogen-inactivated whole blood, 24 hr: BLOQ (BLOQ = Below Limit of Quantitation (e.g., < 0.75 nM))
  Residual amustaline levels in pathogen-inactivated whole blood, 26 hr: BLOQ (BLOQ = Below Limit of Quantitation (e.g., < 0.75 nM))
